{
  "source": "paper PMC4931907",
  "about": "(eLife, 2016)",
  "key": {"CBP": {"target": "T1, CBP (Homo sapiens, UniProt Q92793)", "T1 construct": "purchased Enzo Life Sciences", "test": "In vitro HAT assay with recombinant CBP, histones and 14C acetyl-CoA", "format": "biochemical", "conditions": "read-out: IC50, CBP-mediated acetyltransferase activity", "experimental": "To determine whether salicylate inhibits p300 and other acetyltransferases, we used in vitro acetylation assays with purified histones and a recombinant p300 catalytic domain.\nFigure 1. Salicylate inhibits CBP/p300 in vitro. (A) Recombinant p300, CBP, GCN5, or PCAF and histones were incubated with ^14C-labeled acetyl-CoA with or without sodium salicylate, separated by SDS-PAGE, analyzed by autoradiography, and quantified with Image J software. Acetylation levels are relative to those in untreated controls. (B) Thermal stability assay for sodium salicylate binding to the p300 HAT domain. Tm, melting temperature. […] Histone acetylation was measured with several concentrations of acetyl-CoA (C) or histone (D) in the presence or absence of sodium salicylate. […] Acetylation of an H4(3–14) peptide was monitored using direct microfluidic mobility shift analysis as previously described ([Montgomery et al., 2014]; [Fanslau et al., 2010]). […]\nRecombinant HAT ([…]), either p300, CBP, PCAF, or GCN5 (Enzo Life Sciences), and 10 µg of histones (Sigma) were incubated with sodium salicylate (Sigma) in reaction buffer (50 mM HEPES, pH 8.0, 10% glycerol, 1 mM) at 30°C for 30 min and then with 0.1 mCi of ^14C acetyl-CoA at 30°C for 60 min. Reactions were stopped by adding 6x sample buffer and analyzed by SDS-PAGE. […]"}, "[1]": {"target": "T2, p300 HAT domain (residues 1279–1666, Tyr1467Phe) (Homo sapiens, UniProt Q09472, Y1467F)", "T2 construct": "6-His (N, cleaved yes); made in house; host or cells: E. coli BL21 (DE3)", "T2 sequence (Q09472 1279-1666 Y1467F)": "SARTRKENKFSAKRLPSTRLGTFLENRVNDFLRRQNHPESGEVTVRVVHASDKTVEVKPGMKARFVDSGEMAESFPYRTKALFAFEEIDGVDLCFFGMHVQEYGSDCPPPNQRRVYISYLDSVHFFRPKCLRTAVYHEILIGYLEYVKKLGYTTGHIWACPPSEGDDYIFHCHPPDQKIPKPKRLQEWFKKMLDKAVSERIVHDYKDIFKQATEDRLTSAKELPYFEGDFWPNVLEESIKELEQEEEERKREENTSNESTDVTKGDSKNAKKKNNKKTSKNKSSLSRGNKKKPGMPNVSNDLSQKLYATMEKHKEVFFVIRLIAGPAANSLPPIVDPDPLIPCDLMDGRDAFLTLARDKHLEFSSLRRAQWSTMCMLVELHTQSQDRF", "test": "Thermal stability assay (SYPRO orange)", "format": "binding", "conditions": "p300/acetyl-CoA without salicylate 48.6°C", "experimental": "To confirm that salicylate binds to p300, we used thermal stability assays. A p300 HAT domain construct (residues 1279–1666) bearing an inactivating Tyr1467Phe mutation to facilitate purification of homogeneously hypoacetylated p300 was expressed and purified with an N-terminal 6-His tag from E. coli cells. The protein was further purified by chromatography and incubated with increasing concentrations of sodium salicylate for 30 min and with SYPRO orange dye (Invitrogen). Thermal melt curves were obtained by heating the protein from 20–95°C and monitoring fluorescence at 590 nm.\nA thermal stability assay was used to assess the binding of salicylate to the p300 HAT domain. A p300 HAT domain construct (residues 1279–1666) bearing an inactivating Tyr1467Phe mutation to facilitate purification of homogeneously hypoacetyalted p300 was cloned into a pET-DUET vector with an N-terminal 6-His tag and expressed in BL21 (DE3) E. coli cells. […]\nThe final concentration of p300 was 2 μM in reaction buffer (0.1 M HEPES, pH 7.5, 150 mM NaCl, and 5 mM -mercaptoethanol). […] Thermal melt curves were obtained by heating the protein from 20–95°C and monitoring fluorescence at 590 nm with a 7900HT Fast Real Time PCR System (Applied Biosystems). […]"}},
  "data": [
    {"smiles": "O=C(O)c1ccccc1O", "note": "[salicylate, salicylic acid]", "values": [
      {"measurement": "IC50", "setting": "CBP", "value": 5.7, "unit": "mM"},
      {"measurement": "Thermal unfolding temperature of p300 HAT domain", "setting": "[1]; 10 mM salicylate", "value": 46.1, "unit": "°C"},
      {"measurement": "Thermal unfolding temperature of p300 HAT domain", "setting": "[1]; 25 mM salicylate", "value": 40.8, "unit": "°C"}
    ]}
  ]
}
